Laboratory results published in patent EP0158513A2, “Antiviral compounds” (THE WELLCOME FOUNDATION LIMITED, priority 1984, dated 1985).
Converted amounts (≈) assume the structure as drawn.

Experiments:
[1] = physchem; type: physicochemical; details: 25 °C, water
Excerpt: In UK Patent Specification 2130204 we describe certain purine derivatives which are characterised by the presence of a hydrogen atom in the 6- position of the purine nucleus, and which can be readily converted in vivo by the action of enzymes of the molybdo-flavo-protein type (especially xanthine oxidase/dehydrogenase or aldehyde oxidase) into the corresponding 6-hydroxy purine derivatives having antiviral activity. […] This improved water-solubility enables 6-deoxyacyclovir to be used in a greater variety of aqueous pharmaceutical formulations which require some solubilisation of the drug.

[2] = target: T1, xanthine oxidase from bovine milk (Bos taurus, UniProt P80457); experiment: oxidation by xanthine oxidase (enzyme studies); type: biochemical; details: compared with the 9-unsubstituted purine (2-aminopurine)
T1 construct: xanthine oxidase from bovine milk; from tissue; host or cells: bovine milk
T1 sequence (P80457 whole entry): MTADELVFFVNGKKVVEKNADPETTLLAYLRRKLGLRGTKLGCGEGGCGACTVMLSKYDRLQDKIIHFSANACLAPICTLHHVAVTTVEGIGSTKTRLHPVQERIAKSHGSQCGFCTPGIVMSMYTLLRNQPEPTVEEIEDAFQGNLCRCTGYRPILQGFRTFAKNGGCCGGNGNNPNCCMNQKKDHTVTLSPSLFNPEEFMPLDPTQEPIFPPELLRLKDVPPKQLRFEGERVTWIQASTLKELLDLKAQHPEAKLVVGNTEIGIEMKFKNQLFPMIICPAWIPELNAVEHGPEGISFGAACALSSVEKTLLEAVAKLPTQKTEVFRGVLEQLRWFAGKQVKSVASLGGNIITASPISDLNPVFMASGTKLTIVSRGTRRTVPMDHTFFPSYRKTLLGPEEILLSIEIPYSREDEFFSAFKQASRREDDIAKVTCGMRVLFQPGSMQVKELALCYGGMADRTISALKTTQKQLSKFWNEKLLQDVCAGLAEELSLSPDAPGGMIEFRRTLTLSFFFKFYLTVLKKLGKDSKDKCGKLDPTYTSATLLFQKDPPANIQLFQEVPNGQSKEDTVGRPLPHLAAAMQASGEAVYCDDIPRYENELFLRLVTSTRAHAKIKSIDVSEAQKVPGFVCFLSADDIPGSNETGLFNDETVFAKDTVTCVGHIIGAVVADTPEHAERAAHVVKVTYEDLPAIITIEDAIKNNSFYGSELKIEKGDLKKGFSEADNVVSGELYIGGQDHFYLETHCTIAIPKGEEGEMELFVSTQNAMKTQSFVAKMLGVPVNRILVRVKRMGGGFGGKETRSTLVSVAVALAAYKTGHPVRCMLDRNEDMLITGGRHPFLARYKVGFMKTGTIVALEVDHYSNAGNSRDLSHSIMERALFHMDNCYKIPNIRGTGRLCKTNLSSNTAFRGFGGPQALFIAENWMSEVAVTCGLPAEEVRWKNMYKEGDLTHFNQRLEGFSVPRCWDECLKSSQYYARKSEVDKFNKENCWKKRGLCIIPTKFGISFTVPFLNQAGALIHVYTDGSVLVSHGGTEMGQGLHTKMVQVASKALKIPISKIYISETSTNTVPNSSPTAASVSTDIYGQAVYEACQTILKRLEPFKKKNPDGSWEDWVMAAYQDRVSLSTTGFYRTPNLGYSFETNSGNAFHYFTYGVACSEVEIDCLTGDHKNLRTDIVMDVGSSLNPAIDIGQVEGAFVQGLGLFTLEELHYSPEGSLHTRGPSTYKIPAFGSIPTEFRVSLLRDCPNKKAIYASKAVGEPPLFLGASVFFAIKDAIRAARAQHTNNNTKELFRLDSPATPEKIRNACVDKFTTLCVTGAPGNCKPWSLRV
Excerpt: The discovery that the 6-hydrogen purines of formula (IA) referred to above can be readily converted into their corresponding 6-hydroxy analogues was surprising since in previous studies with xanthine oxidase from bovine milk (H.Lettre et al (1967) Biochem.Pharmacol., 16, 1747-1755; T.A. Krenitsky et al (1972) Arch. Biophys., 150, 585-599), it was shown that 9- substitution obliterates or greatly diminishes the rate at which a variety of purines are oxidised.

Row | solubility [1] | Compound | rate of oxidation by the enzyme [2]
1 | 1.23 mg/mL (≈ 5.46 mM) | Nc1nc2c(ncn2COCCO)c(=O)[nH]1 [acyclovir, 9-(2-hydroxyethoxymethyl)guanine] | –
2 | 50 mg/mL (≈ 239 mM) | Nc1ncc2ncn(COCCO)c2n1 [6-deoxyacyclovir, 2-amino-9-(2-hydroxyethoxymethyl)purine] | at a faster rate than the 9-unsubstituted purine
